The values that follow come from ChEMBL document CHEMBL1681676, “The design and synthesis of novel N-hydroxyformamide inhibitors of ADAM-TS4 for the treatment of osteoarthritis” (Bioorg Med Chem Lett, 2011).

One data set concerns the target Cytochrome P450 3A4 (Homo sapiens, UniProt P08684). The data set can be described thus: Inhibition of CYP3A4. The data set is classed as ADME.
Data set [1] concerns the target Voltage-gated inwardly rectifying potassium channel KCNH2 (Homo sapiens, UniProt Q12809). The data set can be described thus: Inhibition of human ERG.
A short description of data set [2]: Intrinsic clearance in human liver microsomes.
Data set [3] is described as follows: Intrinsic clearance in rat hepatocytes measured per 10^6 cells. The data set is classed as ADME, cell-based, Liver, Hepatocyte.
Data set [4] in a line: Clearance in Han Wistar rat at 2 mg/kg, iv by LC-MS/MS analysis. The data set is classed as ADME, organism-based. Details: dose 2 mg/kg, route intravenous. The settings on record: in vivo.
A short description of data set [5]: Half life in Han Wistar rat at 2 mg/kg, iv and po by LC-MS/MS analysis. In kind it is ADME, organism-based. Details: dose 2 mg/kg, route oral. The settings on record: in vivo.
Data set [6] can be described thus: Oral bioavailability in Han Wistar rat at 3 to 10 mg/kg by LC-MS/MS analysis. The data set is classed as ADME, organism-based. The note with it: in vivo.
A further data set has as its target T1, Interstitial collagenase (Homo sapiens, UniProt P03956).
T1 sequence (P03956 whole entry): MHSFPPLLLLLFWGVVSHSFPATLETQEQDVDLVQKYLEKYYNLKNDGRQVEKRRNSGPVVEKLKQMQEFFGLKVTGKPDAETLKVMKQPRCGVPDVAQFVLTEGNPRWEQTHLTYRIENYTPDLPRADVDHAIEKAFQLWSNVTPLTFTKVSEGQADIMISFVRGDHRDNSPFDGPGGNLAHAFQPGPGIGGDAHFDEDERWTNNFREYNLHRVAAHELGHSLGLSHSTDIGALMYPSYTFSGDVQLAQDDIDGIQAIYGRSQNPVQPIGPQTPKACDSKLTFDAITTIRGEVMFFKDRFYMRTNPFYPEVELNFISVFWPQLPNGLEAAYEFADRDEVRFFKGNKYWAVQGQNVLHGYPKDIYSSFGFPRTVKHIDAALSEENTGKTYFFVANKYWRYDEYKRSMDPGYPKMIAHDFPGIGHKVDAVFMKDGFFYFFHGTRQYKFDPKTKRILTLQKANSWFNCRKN
The data set is described as follows: Inhibition of recombinant human MMP1 assessed as substrate cleavage by measuring increase in fluorescence after 16 hrs.

Another data set has as its target Collagenase 3 (Homo sapiens, UniProt P45452). The data set can be described thus: Inhibition of recombinant human MMP13 assessed as substrate cleavage by measuring increase in fluorescence after 16 hrs.
Data set [7] deals with Matrix metalloproteinase-14 (Homo sapiens, UniProt P50281). The data set is described as follows: Inhibition of recombinant human MMP14 assessed as substrate cleavage by measuring increase in fluorescence after 16 hrs.
Data set [8] addresses 72 kDa type IV collagenase (Homo sapiens, UniProt P08253). The data set is described as follows: Inhibition of recombinant human MMP2 assessed as substrate cleavage by measuring increase in fluorescence after 16 hrs.
Data set [9] deals with Disintegrin and metalloproteinase domain-containing protein 17 (Homo sapiens, UniProt P78536). The data set is described as follows: Inhibition of TACE assessed as substrate cleavage by measuring increase in fluorescence after 16 hrs.
Chain of Disintegrin and metalloproteinase domain-containing protein 17 (P78536 whole entry, the tested form may be a part): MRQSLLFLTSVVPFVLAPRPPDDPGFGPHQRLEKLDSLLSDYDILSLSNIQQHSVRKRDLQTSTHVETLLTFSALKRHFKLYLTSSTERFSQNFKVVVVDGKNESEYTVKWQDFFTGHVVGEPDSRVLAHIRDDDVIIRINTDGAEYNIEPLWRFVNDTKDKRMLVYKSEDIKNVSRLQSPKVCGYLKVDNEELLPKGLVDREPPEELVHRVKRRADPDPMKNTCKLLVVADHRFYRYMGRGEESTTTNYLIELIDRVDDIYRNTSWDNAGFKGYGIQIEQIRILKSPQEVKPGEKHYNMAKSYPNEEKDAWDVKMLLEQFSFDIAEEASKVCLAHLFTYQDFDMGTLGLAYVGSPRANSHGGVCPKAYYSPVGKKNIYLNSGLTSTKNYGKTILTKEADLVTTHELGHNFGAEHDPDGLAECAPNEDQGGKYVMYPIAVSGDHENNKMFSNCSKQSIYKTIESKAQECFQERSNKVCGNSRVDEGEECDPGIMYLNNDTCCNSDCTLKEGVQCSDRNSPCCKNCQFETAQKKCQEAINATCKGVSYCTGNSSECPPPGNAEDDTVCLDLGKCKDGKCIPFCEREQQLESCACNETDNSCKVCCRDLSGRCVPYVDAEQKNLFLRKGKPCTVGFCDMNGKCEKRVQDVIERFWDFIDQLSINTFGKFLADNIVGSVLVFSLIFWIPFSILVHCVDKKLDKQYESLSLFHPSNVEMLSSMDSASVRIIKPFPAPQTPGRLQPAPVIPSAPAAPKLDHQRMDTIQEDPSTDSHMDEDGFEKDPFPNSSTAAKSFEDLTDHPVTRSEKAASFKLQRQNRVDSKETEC
A short description of data set [10]: Clearance in Beagle dog at 1 mg/kg, iv by LC-MS/MS analysis. Details: dose 1 mg/kg, route intravenous. The note with it: in vivo. In kind it is ADME, organism-based, Canis lupus familiaris.
The test system of another data set is Rattus norvegicus. The data set can be described thus: Volume of distribution at steady state in Han Wistar rat at 2 mg/kg, iv and po by LC-MS/MS analysis. In kind it is ADME, organism-based. More on the design: dose 2 mg/kg, route oral. The settings on record: in vivo.
The test system of the next data set is Canis familiaris. The data set can be described thus: Volume of distribution at steady state in Beagle dog at 1 mg/kg, iv and po by LC-MS/MS analysis. The note with it: in vivo. Details: dose 1 mg/kg, route oral. The data set is classed as ADME, organism-based, Canis lupus familiaris.
Data set [11] in a line: Oral bioavailability in Han Wistar rat at 2 mg/kg by LC-MS/MS analysis. The data set is classed as ADME, organism-based. The settings on record: in vivo.
The nature of data set [12]: Oral bioavailability in Beagle dog at 1 mg/kg by LC-MS/MS analysis. In kind it is ADME, organism-based, Canis lupus familiaris. The note with it: in vivo.
Data set [13] in a line: Oral bioavailability in mouse by LC-MS/MS analysis. In kind it is ADME, organism-based. The settings on record: in vivo.
The nature of data set [14]: Inhibition of aggrecanase-mediated aggrecan degradation in IL-1-stimulated bovine nasal cartilage explant after 48 hrs by immunoblot method. The data set is classed as tissue-based, Bos taurus. For orientation: In western blotting, separated proteins are transferred to a membrane and probed.
The nature of data set [15]: Inhibition of aggrecanase-mediated aggrecan degradation in IL-1 and oncostatin M-stimulated human knee osteoarthritic cartilage after 48 hrs by immunoblot method.
The nature of data set [16]: Half life in Beagle dog at 1 mg/kg, iv and po by LC-MS/MS analysis. In kind it is ADME, organism-based, Canis lupus familiaris. More on the design: dose 1 mg/kg, route oral. The settings on record: in vivo.

Molecules are shown by their SMILES.

Chain of Cytochrome P450 3A4 (P08684 whole entry): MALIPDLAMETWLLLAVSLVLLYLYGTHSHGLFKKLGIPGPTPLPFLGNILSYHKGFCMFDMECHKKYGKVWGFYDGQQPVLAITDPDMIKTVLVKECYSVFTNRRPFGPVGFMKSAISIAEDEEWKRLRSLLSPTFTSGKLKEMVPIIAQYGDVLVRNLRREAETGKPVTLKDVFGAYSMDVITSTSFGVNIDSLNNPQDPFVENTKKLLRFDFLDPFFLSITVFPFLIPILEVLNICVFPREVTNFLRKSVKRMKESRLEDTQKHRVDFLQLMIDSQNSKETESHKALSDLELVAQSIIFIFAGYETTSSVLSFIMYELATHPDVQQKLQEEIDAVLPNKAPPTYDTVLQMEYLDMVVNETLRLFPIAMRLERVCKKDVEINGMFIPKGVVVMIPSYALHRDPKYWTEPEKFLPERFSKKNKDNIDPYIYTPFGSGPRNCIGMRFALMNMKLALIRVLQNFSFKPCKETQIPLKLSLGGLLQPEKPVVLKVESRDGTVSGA
Chain of 72 kDa type IV collagenase (P08253 whole entry, the tested form may be a part): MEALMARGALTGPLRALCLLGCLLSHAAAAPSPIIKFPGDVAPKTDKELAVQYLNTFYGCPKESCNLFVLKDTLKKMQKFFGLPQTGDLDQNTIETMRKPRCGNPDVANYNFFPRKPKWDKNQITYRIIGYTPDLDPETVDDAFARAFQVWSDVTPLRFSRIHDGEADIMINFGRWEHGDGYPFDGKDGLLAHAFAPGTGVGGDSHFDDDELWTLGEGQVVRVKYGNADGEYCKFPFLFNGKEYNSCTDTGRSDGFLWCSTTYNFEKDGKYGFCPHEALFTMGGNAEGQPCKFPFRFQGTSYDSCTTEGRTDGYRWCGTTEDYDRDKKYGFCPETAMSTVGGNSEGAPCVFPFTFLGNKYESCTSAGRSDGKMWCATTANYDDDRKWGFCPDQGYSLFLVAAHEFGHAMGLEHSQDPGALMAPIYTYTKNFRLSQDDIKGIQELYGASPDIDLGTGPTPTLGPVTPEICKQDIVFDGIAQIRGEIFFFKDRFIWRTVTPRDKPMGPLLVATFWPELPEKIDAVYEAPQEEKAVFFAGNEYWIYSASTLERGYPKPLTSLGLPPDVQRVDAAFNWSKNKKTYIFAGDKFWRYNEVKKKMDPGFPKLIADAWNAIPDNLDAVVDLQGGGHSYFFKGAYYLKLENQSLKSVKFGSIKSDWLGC
Chain of Voltage-gated inwardly rectifying potassium channel KCNH2 (Q12809 whole entry): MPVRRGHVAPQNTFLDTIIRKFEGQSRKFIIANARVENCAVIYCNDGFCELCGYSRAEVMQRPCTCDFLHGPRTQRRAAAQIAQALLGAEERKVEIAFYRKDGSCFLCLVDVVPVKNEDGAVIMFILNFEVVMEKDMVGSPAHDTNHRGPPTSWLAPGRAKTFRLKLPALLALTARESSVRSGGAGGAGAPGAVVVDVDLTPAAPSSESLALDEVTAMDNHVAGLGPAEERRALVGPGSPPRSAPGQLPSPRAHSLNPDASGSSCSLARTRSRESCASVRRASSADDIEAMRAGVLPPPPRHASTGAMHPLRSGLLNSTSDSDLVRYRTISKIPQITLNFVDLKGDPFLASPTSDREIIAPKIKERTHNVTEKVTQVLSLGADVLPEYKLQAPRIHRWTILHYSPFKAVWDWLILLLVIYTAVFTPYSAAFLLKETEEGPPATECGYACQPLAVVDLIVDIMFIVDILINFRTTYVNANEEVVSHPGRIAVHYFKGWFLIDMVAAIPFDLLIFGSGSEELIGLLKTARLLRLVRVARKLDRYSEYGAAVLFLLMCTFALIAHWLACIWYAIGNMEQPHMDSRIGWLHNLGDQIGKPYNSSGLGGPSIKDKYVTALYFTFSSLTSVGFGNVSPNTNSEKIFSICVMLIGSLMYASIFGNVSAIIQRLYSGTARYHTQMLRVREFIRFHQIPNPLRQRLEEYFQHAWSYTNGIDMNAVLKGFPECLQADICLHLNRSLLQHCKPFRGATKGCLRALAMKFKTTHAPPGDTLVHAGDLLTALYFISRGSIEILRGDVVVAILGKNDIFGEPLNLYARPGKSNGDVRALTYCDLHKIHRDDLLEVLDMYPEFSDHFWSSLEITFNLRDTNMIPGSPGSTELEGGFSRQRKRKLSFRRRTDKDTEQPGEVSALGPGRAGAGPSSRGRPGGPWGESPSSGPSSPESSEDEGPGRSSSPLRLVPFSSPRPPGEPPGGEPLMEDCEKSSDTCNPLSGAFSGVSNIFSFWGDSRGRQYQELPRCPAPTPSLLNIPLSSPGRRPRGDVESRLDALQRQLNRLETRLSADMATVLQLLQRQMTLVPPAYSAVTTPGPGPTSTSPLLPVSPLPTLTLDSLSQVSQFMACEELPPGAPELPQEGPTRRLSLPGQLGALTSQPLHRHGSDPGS

By IC50 is commonly meant the concentration that gives 50% inhibition. Broadly, the microsomal CLint is a measure of how fast metabolising enzymes remove a compound, apart from limits set by blood flow. Lower therefore signals greater metabolic stability. The term hepatocyte CLint denotes a measure of how fast metabolising enzymes remove a compound, apart from limits set by blood flow. Read a high hepatocyte CLint as rapid turnover. A word on the clearance: it is the rate of elimination divided by the concentration. A high value points to efficient removal. One may read the half-life as how long it takes for the measured level to halve. A low value points to fast loss. The bioavailability is the share of a dose that reaches the circulation, judged against a reference dose that is usually intravenous. Lower therefore signals poor availability. Take `C[C@@H](C[C@@](C)(CS(=O)(=O)N1CCC(OCc2ccc(Cl)cc2Cl)CC1)N(O)C=O)c1ncc(F)cn1`: the IC50 against Cytochrome P450 3A4 was more than 10 µM; in data set [1] it was 8 µM; on Interstitial collagenase, more than 10 µM; on Collagenase 3, 430 nM; in [7], 430 nM. Moreover, the microsomal CLint in [2] is 107 µL/min/mg. In addition, the intrinsic clearance (hepatocyte CLint) in [3] is 56.9 µL/min/1e6 cells. The compound further gave a clearance in data set [4] of 130 mL/min/kg. The half-life in data set [5] is 18 min. Moreover, the bioavailability in [6] is 0%.
Regarding `Cc1noc(C)c1CCC1CCN(S(=O)(=O)C[C@](C)(C[C@H](C)c2ncc(F)cn2)N(O)C=O)CC1`, the clearance in [4] turned out to be 11 mL/min/kg; in data set [10], 20 mL/min/kg. Besides, the half-life in data set [5] was 660 min; in [16], 678 min. Besides, the IC50 in data set [8] was more than 6.3 µM; in data set [9], 250 nM; in [14], 310 nM; in data set [15] it was 243 nM; on Interstitial collagenase, more than 19 µM; at Collagenase 3, more than 8100 nM. The 50% inhibitory concentration (IC50) in data set [7] is more than 8900 nM. Besides, the values for the Vdss with Rattus norvegicus and with Canis familiaris were 7.4 L/kg and 9.21 L/kg, respectively. For the same compound, the bioavailability in data set [11] is 3.5%; in [12], 20%; in [13] it was 34%.
